From paper PMC7046148 (Scientific Reports, 2020)
“Also recorded” adds a separate entry of the source.

Assays:
[1] = tested on: Gibco hiPSCs; assay: qRT-PCR of 3D fibrin cultures of hiPSCs during LPM differentiation; assay type: cell-based, human; details: thalidomide 20 µM, atRA 3 µM, 2 d in APEL2+GSKi, fibrin 3D
Method: For 3D differentiation studies, Gibco hiPSCs were encapsulated in fibrin at 2–4 × 10^6 cells/mL. hiPSCs were passaged with Versene (as described above) and were suspended as small clumps in a solution composed of a 1:4:5:10 dilution of 200 mM CaCl2 in DI water, 50 U/mL human thrombin (Sigma) in 0.1% cell culture BSA in DI water, DPBS, and hiPSC suspension in mTeSR1. The hiPSC suspension was mixed by pipetting, and 0.5 µL droplets of suspended hiPSCs were plated at the bottom of each well of a round-bottom sterile polypropylene plate. hiPSC suspensions were subsequently diluted 5-fold by pipetting up and down in each well with 2 µL of 10 mg/mL human fibrinogen (Sigma) in DPBS (sterile filtered prior to use). Fibrin clot formation proceeded for 10 minutes at room temperature prior to addition of mTeSR-1 and incubation under normal culture conditions overnight. […] For chondrogenic differentiation experiments, cells were cultured in APEL2 + GSKi for the described duration, followed by culture in ACF MesenCult chondrogenic differentiation medium (Stem Cell Technologies) for 17–20 days under normal culture conditions. […]
(black bars). Data are presented as mean ± SEM of the log2 fold change calculated from each sample relative to the ACTB housekeeper control and the DMSO control (normalized via the 2-ΔΔCT method) from three independent experiments. […]

[2] = tested on: XCL-1 hiPSC CRBN KO/KI; assay: LPM differentiation assay (FOXF1 high content imaging), XCL-1 CRBN KO/KI clone; assay type: cell-based, human; details: for IC50: Homo sapiens, 48 h, XCL-1 CRBN KO/KI, % FOXF1+ cells after 2 d in APEL2+GSKi, read-out: IC50 (±SEM) in LPM differentiation assay
Method: On the day after seeding, the medium was replaced with 100 µL/well of mTeSR-1 (control) or APEL2 + GSKi containing either DMSO or diluted compounds (for a final DMSO concentration of 0.2%). The same conditions were replenished the following day for a total of 2 d of differentiation, and the following day (3 d after seeding), the medium was aspirated, and hiPSCs were fixed in 10% NBF for 15 min at room temperature. For time-course experiments, cells were fixed at the specified intervals after the start of LPM differentiation.
Immunofluorescence staining was carried out by fixing/permeabilizing cells overnight in blocking buffer containing 3% BSA (Sigma) in DPBS-T, which contains DPBS + Ca^2+//Mg^2+ with 0.3% Triton-X100 (Sigma). Fixed and permeabilized cells were incubated in primary antibodies diluted (as noted in Table 1) in antibody buffer, consisting of 1% BSA in DPBS-T, overnight at 4 °C.
Cells were washed in blocking buffer for >6 hours at 4 °C and subsequently incubated in secondary antibody diluted in antibody buffer overnight at 4 °C. Secondary antibodies were washed out in antibody buffer for >4 h at 4 °C, and hiPSCs were counterstained with DAPI (Fisher) at 10 µg/mL in DPBS-T for 2 h. hiPSCs were washed in DPBS-T for >2 h at 4 °C, and immediately before imaging, the DPBS-T was replaced with DPBS. Initial characterization of LPM differentiation by immunofluorescence was carried out using the A1R confocal microscope (Nikon) equipped with 10X objective, and automated object analysis was carried out using NIS Elements v5 software (Nikon). Chemical dose-response experiments and experiments examining the time-course of marker expression during LPM differentiation were imaged at 10X magnification using the Cellomics ArrayScan or CellInsight Cx7 LZR High Content Screening Platform and HCS Studio Cell Analysis Software (Thermo Fisher). An artificial threshold was uniformly applied to all images to generate the percentage of DAPI+ nuclei that stained positively for FOXF1 or NANOG. Thresholding for FOXF1 and T was performed relative to undiffer-entiated hiPSCs, and thresholding for SALL4 and OCT4 was performed relative to a non-expressing cell type (human primary endothelial cells). Settings for image acquisition and processing were uniformly applied between XCL-1 clones. The capacity of all XCL-1 clones and Gibco hiPSCs to undergo LPM differentiation in the high content format was assessed by FOXF1 and NANOG immunostaining. […] Experiments were repeated in quadruplicate unless otherwise stated, and data are presented as mean ± SEM. Nonlinear regression analysis was performed using the 4-parameter [inhibitor]-vs-response curve fitting algorithm in Prism (GraphPad).
Using CRISPR/Cas9-mediated gene editing, both CRBN alleles were knocked out in XCL-1 hiPSCs cells, followed by the insertion at the AAVS1 locus of a transgene encoding human CRBN with E377V and V388I mutations (clone hereafter referred to as CRBN KO/KI).

[3] = tested on: XCL-1 hiPSC SALL4^G416A; assay: cells; assay type: cell-based; details: Homo sapiens, 72 h; XCL-1 SALL4^G416A; 3 d differentiation; read-out: IC50 (±SEM) in SOX17 differentiation assay
Method: (§1) The assay was carried out as previously described with continuous dosing of chemical for 3 total days of differentiation. SOX17 staining and DAPI counter-staining were carried out as described, and assays were imaged via high content imaging. […]
(§2) Supplementary Figure 7. Dose-response characterization of the influence […]
(§3) of XCL-1 clones. High content imaging analysis of XCL-1 hiPSC clones that were differentiated for 3 days in the presence of compound and subsequently stained for SOX17 and counter-stained with DAPI. Untreated DMSO control is omitted. Data represent the mean +/- SEM %SOX17 cells
(§4) (relative to control) from 4 independent experiments. Nonlinear regression […]
(§5) variable slope plotting tool in GraphPad Prism. A-C: Dose-response […]
(§6) in cereblon mock (hollow circles) or CRBN KO/KI (red filled circles) clones. D- […]

[4] = tested on: XCL-1 hiPSC CRBN Mock; assay: cells; assay type: cell-based; details: Homo sapiens, 72 h; XCL-1 CRBN Mock; 3 d differentiation; read-out: IC50 (±SEM) in SOX17 differentiation assay
Method: as §1, §2, §3, §4, §5, §6

[5] = tested on: XCL-1 hiPSC CRBN KO/KI; assay: cells; assay type: cell-based; details: Homo sapiens, 72 h; XCL-1 CRBN KO/KI; 3 d differentiation; read-out: IC50 (±SEM) in SOX17 differentiation assay
Method: as §1, §2, §3, §4, §5, §6

[6] = tested on: XCL-1 hiPSC SALL4 Mock; assay: cells; assay type: cell-based; details: Homo sapiens, 72 h; XCL-1 SALL4 Mock; 3 d differentiation; read-out: IC50 (±SEM) in SOX17 differentiation assay
Method: as §1, §2, §3, §4, §5, §6

[7] = target: T1, SALL4 (Homo sapiens, UniProt Q96SW2+Q9UJQ4); assay: SALL4 MFI by high content imaging, XCL-1 SALL4 mock hiPSCs; assay type: cell-based; details: SALL4 mock control hiPSCs, 8 h of treatment
T1 construct: Unmodified Gibco hiPSCs were either differentiated in APEL2 + GSKi or maintained in mTeSR1, and SALL4 nuclear protein expression was monitored; endogenous in cells; host or cells: Gibco hiPSCs; XCL-1 SALL4 mock hiPSC clone
Text: High content imaging analysis of SALL4 immunofluorescence with DAPI counterstaining in hiPSCs. […] Data represent the mean +/− SEM from 2 independent experiments.

[8] = tested on: mouse embryonic stem cells; details: cited from earlier work
[9] = tested on: hPSC; set-up: method as in PMID 24154490; details: cited from earlier work
[10] = tested on: human pluripotent stem cells (hPSCs); details: cited from earlier work
[11] = target: T2, human SALL4 (Homo sapiens, UniProt Q9UJQ4); assay: Immunoblot of SALL4 degradation in Lenti-x 293 CRBN-/- cells expressing human CRBN variants; assay type: cell-based; details: 20 µM thalidomide, 10 µM lenalidomide, 1 µM pomalidomide, 24 hours; relative to wild-type human CRBN
T2 construct: expressed in transfected cells; host or cells: Lenti-x 293 CRBN CRISPR KO (CRBN-/-) cells stably expressing human SALL4, transiently transfected with FLAG-CRBN variants
T2 sequence (Q96SW2 whole entry partner): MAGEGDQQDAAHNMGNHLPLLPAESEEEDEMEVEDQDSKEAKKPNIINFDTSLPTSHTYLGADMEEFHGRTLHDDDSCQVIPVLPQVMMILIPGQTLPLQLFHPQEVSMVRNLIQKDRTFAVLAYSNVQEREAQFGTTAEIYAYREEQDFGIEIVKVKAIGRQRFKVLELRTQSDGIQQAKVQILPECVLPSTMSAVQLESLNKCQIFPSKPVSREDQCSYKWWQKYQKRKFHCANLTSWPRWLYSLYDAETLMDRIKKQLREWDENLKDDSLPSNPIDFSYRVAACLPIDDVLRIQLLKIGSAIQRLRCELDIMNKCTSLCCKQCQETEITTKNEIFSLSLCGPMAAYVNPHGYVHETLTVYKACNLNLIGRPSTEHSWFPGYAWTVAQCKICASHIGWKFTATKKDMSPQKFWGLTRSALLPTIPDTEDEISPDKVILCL
T2 sequence (Q16531 whole entry partner): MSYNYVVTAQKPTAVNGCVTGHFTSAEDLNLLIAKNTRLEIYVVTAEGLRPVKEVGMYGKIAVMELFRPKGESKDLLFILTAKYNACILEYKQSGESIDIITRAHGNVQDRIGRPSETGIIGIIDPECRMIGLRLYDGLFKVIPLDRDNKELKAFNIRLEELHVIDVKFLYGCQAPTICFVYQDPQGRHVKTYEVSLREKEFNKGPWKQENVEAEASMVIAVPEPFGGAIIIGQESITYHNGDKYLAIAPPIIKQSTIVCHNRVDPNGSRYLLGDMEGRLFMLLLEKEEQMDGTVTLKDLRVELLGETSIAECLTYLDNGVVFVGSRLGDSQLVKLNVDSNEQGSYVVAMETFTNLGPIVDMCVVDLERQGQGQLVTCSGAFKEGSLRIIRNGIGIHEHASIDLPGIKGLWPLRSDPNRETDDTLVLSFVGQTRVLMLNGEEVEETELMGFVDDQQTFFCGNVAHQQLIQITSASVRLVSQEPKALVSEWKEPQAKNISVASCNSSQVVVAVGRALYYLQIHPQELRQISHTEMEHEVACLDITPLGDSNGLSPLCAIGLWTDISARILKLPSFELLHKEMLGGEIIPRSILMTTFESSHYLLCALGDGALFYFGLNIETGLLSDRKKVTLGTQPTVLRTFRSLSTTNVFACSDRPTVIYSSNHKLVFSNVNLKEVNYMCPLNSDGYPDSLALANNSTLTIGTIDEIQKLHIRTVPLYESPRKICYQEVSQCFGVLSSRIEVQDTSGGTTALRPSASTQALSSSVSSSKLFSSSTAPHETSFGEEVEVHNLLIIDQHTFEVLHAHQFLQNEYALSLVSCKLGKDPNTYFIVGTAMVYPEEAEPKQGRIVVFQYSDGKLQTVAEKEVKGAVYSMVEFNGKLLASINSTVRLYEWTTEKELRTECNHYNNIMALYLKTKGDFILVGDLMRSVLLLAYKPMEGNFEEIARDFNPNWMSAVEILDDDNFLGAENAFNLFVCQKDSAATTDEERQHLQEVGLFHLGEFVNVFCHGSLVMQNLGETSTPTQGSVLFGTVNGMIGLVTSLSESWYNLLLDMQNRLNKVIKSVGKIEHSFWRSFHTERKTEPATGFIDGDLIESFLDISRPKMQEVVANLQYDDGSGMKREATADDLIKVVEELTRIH
T2 sequence (Q9UJQ4 whole entry): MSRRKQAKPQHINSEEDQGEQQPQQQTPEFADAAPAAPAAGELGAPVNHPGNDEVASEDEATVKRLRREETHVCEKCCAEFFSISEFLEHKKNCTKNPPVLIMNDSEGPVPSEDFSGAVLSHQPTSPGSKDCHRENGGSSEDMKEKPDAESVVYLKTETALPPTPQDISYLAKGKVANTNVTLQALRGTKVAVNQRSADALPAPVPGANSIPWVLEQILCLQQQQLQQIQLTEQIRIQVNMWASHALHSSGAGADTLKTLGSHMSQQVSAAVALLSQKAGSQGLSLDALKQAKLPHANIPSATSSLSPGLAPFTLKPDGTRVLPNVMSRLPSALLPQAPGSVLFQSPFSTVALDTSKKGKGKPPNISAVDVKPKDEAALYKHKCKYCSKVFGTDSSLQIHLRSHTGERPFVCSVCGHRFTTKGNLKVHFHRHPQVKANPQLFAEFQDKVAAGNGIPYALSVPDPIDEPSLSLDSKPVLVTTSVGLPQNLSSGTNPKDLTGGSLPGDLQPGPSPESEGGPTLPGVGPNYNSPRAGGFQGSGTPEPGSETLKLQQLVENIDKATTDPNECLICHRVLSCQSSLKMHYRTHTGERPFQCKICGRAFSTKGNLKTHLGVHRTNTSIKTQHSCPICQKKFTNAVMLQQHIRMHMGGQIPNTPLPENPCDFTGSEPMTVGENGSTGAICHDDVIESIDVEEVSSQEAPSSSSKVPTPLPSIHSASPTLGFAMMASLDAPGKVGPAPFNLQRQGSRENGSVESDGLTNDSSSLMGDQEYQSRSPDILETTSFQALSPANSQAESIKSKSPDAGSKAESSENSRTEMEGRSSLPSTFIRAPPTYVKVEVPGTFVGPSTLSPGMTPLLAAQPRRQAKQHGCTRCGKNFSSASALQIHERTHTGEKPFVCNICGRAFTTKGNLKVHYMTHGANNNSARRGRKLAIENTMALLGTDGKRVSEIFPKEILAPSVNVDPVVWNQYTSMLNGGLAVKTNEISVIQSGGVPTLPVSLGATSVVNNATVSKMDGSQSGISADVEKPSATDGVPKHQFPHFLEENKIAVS
Text: SALL4 were transiently transfected with vectors expressing GFP or human CRBN variants and treated with
CRBN-/- cells transfected with empty vector were used as a negative control. The cells were then lysed and
characterized by immunoblotting analysis for SALL4, ZFP91, GFP, CRBN, and β-actin.
CRBN CRISPR KO (CRBN -/-) cells were maintained in Dulbecco’s Modified Eagle’s medium (DMEM;
Invitrogen) supplemented with 10% fetal bovine serum (FBS; Invitrogen). All cell lines were confirmed
mycoplasma-negative using the MycoAlert Mycoplasma Detection Kit (Lonza).
CRBN-/- cells stably expressing human SALL4 was transiently transfected with 4 µg of pcDNA3-GFP, pcDNA3-
FLAG-CRBN WT (isoform 1),pcDNA3-FLAG-CRBN E377V (isoform 1) or pcDNA3-FLAG-CRBN V388I (isoform
Cells were then harvested and lysed, and
whole cell extract was subjected to immunoblotting analysis. Cells were washed with ice-cold 1X PBS and
lysed in 50mM Tris-HCl [pH 7.6], 150 mM NaCl, 1% Triton X-100, and 1x Complete ULTRA protease inhibitor
cocktail and PhosSTOP phosphatase inhibitor cocktail. Whole cell extracts were collected after
centrifugation at top speed for 10 minutes, resolved by sodium dodecyl sulfate polyacrylamide gel
electrophoresis, transferred onto a nitrocellulose membrane using the Turboblot system (Bio-Rad), and
probed with the indicated primary antibodies. Bound antibodies were detected with IRDye®-680 or -800 […]

T1 sequence (Q9UJQ4 whole entry): as above
T1 sequence (Q96SW2 whole entry): as the sequence (Q96SW2 whole entry partner) above
T1 sequence (Q16531 whole entry partner): as the sequence (Q16531 whole entry partner) above

IC50 [2] [µM] | IC50 [3] [µM] | IC50 [5] [µM] | effect on SALL4 MFI [7] | SALL4 degradation in human cells expressing CRBN with the V388I mutation [11] | SMILES | effect on marker gene expression in 3D LPM differentiation [1] | IC50 [4] [µM] | IC50 [6] [µM] | concentration for nonspecific toxicity in the mEST [8] | non-cytotoxic concentrations at which the definitive endoderm assay was sensitive [9] | concentrations with cytotoxicity or functional effects on hPSCs and hPSC-derived mesoderm [10] | inhibition of LPM differentiation at the highest concentration tested ([2]; 50 µM, CRBN KO/KI clone)
8.17 ± 5.1 |  |  |  |  | CC1=C(/C=C/C(C)=C/C=C/C(C)=C/C(=O)O)C(C)(C)CCC1 [atRA, all-trans retinoic acid] | reduced FOXF1 and KDR expression; also recorded: reduced the expression of TBXT and GATA4 |  |  |  |  |  | 
> 50 | > 50 | > 50 | potently reduced SALL4 MFI | failed to induce SALL4 degradation | O=C1CCC(N2C(=O)c3ccccc3C2=O)C(=O)N1 (centres unmarked) [Thalidomide, thalidomide] | reduced FOXF1 and KDR expression | 1.9 ± 2.3 | 1.8 ± 2.6 | above 400 µM | below 1 µM | above 100 µM | inhibited LPM differentiation albeit not to the same magnitude as control hiPSCs
